Measured values as given in patent publication US20190257817A1, “METHODS AND SYSTEMS FOR SCREENING CANDIDATE COMPOUNDS FOR THEIR POTENTIAL TO CAUSE SYSTEMIC OR HEPATIC TOXICITY” (Qualyst Transporter Solutions, LLC, priority 2016, published 2019).
Entries after “also recorded” stand apart in the source; their conditions may differ. Read-outs that look alike come from different tables or passages of the source. Values belong to the compound of their own block, whether it stands above or below them.

Assays:
SCHH [1] = assay: Bile acids at increasing concentrations in SCHH over 24 hours (ATP, LDH); type: cell-based, human; conditions: 24 hr exposure
Description: Bile acids GCA, GCDCA and GDCA were evaluated at increasing concentrations in SCHH over 24 hours. ATP (FIG. 9) and LDH (FIG. 10) content were measured.

SCHH [2] = assay: Cholestasis hepatotoxicity screening assay in SCHH (LDH leakage, ATP content), standard vs sensitization medium; type: cell-based; conditions: human, 24 h, 100 μM
Excerpt: As discussed above, hepatocytes become susceptible to bile acid toxicity (e.g. cholestatic hepatotoxicity) when drug exposure inhibits bile acid efflux routes (e.g. BSEP and/or MRP3/4) and 1) prevents (antagonize) FXR from sensing the rising intracellular concentrations of bile acids; or 2) inhibits bile acid efflux through OSTα/β; or 3) a combination of both. […] Briefly, hepatocytes were established in a sandwich-cultured configuration for four days. […] Drug exposures ranged from about 8× to about 16× Cmax to account for concentrating effect that can occur in the portal vein following oral administration of test compounds. Following 24 hours, LDH leakage and ATP content was evaluated utilizing commercially available assays.
The sensitization medium included free fatty acids and a physiological mixture of primary and secondary bile acids, described above (GCDCA, GCA, DCA, and GDCA) at an adequate concentration (250 μM) that minimized toxicity but challenged the hepatocytes bile acid homeostasis mechanism.

FXR = target: T1, FXR (Homo sapiens, UniProt Q96RI1); assay: FXR antagonism: OSTβ mRNA induction in SCHH co-treated with CDCA and CsA; type: cell-based
T1 construct: endogenous in cells; host or cells: SCHH (sandwich-cultured hepatocytes from donors)
T1 sequence (Q96RI1 1-486): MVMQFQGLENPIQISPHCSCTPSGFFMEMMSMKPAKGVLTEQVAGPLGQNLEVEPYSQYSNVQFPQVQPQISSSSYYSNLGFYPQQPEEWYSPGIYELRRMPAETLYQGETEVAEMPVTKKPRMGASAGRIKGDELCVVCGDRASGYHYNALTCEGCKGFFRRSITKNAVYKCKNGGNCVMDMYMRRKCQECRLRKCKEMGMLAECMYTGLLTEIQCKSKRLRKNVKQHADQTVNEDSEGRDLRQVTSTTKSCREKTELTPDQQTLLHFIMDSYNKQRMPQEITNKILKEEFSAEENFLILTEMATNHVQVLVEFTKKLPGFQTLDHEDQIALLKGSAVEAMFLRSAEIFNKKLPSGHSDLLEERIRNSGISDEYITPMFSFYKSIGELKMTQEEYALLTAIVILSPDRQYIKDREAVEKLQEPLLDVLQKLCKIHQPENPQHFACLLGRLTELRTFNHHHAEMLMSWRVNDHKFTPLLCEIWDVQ
Excerpt: Alternatively, the reduction of OSTβ mRNA content may be explained by cytotoxicity under the conditions evaluated.

[3] = cited from earlier work
[4] = cited from earlier work; for clinical toxicity: clinic; for ALT elevations≥3× upper limit normal: large clinical trials
SCHH [5] = assay: Feasibility study: BA toxicity potency, Ambrisentan vs Sitaxsentan; type: cell-based, human; conditions: 2-200 uM test compound
Excerpt: Generally, the presently disclosed methods can in some embodiments comprise culturing SCHH with a concentration range of a bile acid (e.g. DCA), or bile acid pool to identify the toxicity profile of the bile acid (such as by measurement of ATP and/or LDH; dotted line in FIGS. 7 and 8). In a parallel study, SCHH can be exposed to a concentration range of DCA or combination of bile acids in the presence of a potential cholestatic hepatotoxicant.

[6] = tested on: sandwich-cultured human hepatocytes; assay: Bile acid pool toxicity profile shift in SCHH, ApoTox-Glo Triplex Assay; type: cell-based; conditions: 5 mM and 11 mM glucose
Description: Utilizing similar methodology from the previous sections, hepatotoxicity was evaluated with ApoTox-Glo™ Triplex Assay.
The effects of the test compounds were evaluated in the presence of the individual bile acids and in the presence of a bile acid pool. The effects were compared to bile acid treatment alone. DMSO treatment alone was used as a comparator for hepatotoxicity. Hepatotoxicity was evaluated with ApoTox-Glo™ Triplex Assay, which assesses viability, cytotoxicity and apoptosis.
A bile acid mixture was evaluated, and was composed of 4 different bile acids maintained at a physiological relevant ratio of each bile acid. […] Individual bile acids were dosed using the concentration they represent in the mixture.
A treatment group without free fatty acids was used as a control. Hepatotoxicity was evaluated with ApoTox-Glo™ Triplex Assay which assessed viability, cytotoxicity and apoptosis.

BSEP = BSEP (Homo sapiens, UniProt O95342); assay: In vitro assay of BSEP effect
BSEP, sequence (O95342 whole entry, species assumed): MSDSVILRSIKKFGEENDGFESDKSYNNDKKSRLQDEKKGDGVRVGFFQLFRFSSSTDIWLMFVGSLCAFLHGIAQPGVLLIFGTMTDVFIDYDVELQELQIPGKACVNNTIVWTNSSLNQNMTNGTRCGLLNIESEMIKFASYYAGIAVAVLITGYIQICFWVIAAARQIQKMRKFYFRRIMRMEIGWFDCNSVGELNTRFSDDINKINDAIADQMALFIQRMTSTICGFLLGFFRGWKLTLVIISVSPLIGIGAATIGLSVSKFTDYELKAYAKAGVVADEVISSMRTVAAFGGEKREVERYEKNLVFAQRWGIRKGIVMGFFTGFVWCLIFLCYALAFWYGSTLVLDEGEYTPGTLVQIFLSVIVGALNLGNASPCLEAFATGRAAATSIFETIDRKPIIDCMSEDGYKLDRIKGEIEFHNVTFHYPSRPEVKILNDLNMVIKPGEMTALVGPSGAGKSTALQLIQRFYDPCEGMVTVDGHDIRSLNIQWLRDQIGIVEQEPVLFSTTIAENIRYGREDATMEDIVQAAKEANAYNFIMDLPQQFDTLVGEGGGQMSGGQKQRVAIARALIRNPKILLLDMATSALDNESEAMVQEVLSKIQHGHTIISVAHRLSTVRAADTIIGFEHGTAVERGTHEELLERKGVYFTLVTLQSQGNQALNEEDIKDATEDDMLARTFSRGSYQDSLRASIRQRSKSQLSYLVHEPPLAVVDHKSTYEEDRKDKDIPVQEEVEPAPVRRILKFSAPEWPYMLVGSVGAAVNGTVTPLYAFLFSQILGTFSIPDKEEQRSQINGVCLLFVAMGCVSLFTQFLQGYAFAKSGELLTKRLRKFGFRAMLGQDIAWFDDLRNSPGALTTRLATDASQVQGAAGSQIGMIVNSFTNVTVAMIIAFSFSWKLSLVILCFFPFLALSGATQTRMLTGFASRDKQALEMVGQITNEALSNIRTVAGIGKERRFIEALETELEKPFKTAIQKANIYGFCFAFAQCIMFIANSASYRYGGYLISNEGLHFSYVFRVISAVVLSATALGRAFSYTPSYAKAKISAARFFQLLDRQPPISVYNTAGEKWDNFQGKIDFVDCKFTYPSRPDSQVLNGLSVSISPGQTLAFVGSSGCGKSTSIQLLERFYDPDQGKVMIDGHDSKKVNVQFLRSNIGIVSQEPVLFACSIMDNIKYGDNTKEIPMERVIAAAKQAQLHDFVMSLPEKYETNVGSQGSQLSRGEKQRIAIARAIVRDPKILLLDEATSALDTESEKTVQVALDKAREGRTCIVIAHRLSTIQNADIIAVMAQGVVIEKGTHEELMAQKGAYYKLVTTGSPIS

NTCP = target: T2, NTCP (Homo sapiens, UniProt Q14973); assay: In vitro assays of NTCP inhibition
T2 sequence (Q14973 1-349): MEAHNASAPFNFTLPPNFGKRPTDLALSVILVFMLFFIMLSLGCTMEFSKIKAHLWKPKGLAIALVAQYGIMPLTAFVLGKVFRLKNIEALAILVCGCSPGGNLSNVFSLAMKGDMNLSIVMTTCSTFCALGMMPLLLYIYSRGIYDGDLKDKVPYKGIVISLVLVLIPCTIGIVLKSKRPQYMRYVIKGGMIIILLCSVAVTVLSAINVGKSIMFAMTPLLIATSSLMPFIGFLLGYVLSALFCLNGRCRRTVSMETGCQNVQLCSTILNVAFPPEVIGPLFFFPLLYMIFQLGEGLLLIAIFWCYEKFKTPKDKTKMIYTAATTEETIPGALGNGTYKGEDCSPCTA

[7] = conditions used to examine FXR antagonism

Compound: C[C@H](CCC(=O)NCC(=O)O)[C@H]1CC[C@H]2[C@@H]3[C@H](O)C[C@@H]4C[C@H](O)CC[C@]4(C)[C@H]3C[C@H](O)[C@]12C [GCA]
cytotoxicity of bile acid (SCHH [1]; increasing concentrations, ATP and LDH): not cytotoxic

Compound: C[C@H](CCC(=O)NCC(=O)O)[C@H]1CC[C@H]2[C@@H]3[C@H](O)C[C@@H]4C[C@H](O)CC[C@]4(C)[C@H]3CC[C@]12C [GCDCA]
relative toxicity in the ATP assay (SCHH [1]): equaled GDCA
relative toxicity in the LDH assay (SCHH [1]): GDCA was greater than GCDCA

ATP content (FXR; [7]): no significant decreases of ATP content
Compound: Cc1c(C)c2c(c(C)c1O)CCC(C)(COc1ccc(CC3SC(=O)NC3=O)cc1)O2 (stereo not shown) [troglitazone]
ATP content (SCHH [2]): 0.9 % of control
LDH leakage (SCHH [2]): 863 % of control
LDH secretion (SCHH [2]): 490 % of control
loss of ATP content (SCHH [2]): > 99 % of control
LDH leakage (FXR; [7]): no significant decreases of ATP content or increases of LDH leakage

Compound: COC(c1ccccc1)(c1ccccc1)[C@H](Oc1nc(C)cc(C)n1)C(=O)O [Ambrisentan]
Cmax ([3]; in vivo): 3000 nM
clinical toxicity [4]: Well tolerated; no toxicity
BA toxicity potency (SCHH [5]): No change in BA toxicity potency

Compound: CCc1ccc(CCOc2ccc(CC3SC(=O)NC3=O)cc2)nc1 (stereo not shown) [pioglitazone]
Cmax ([3]; Dawson et al. 2012): 2900 nM
ALT elevations≥3× upper limit normal [4]: not different from placebo recipients

Compound: C[C@H](CCC(=O)NCC(=O)O)[C@H]1CC[C@H]2[C@@H]3CC[C@@H]4C[C@H](O)CC[C@]4(C)[C@H]3C[C@H](O)[C@]12C [GDCA]
relative toxicity in the ATP assay (SCHH [1]): GCDCA equaled GDCA
relative toxicity in the LDH assay (SCHH [1]): greater than GCDCA

Compound: CN(CCOc1ccc(CC2SC(=O)NC2=O)cc1)c1ccccn1 (stereo not shown) [rosiglitazone]
Cmax ([3]; Dawson et al. 2012): 1000 nM
ALT elevations≥3× upper limit normal [4]: not different from placebo recipients

induction of OSTβ mRNA content (FXR; SCHH co-treated with CDCA and CsA, troglitazone 75-100 μM): A similar effect was observed
Compound: COc1cccc(Cn2cc(C(=O)Nc3ccc(C)c(S(=O)(=O)N4CCOCC4)c3)c(-c3ccc(C)cc3)n2)c1 [DY268]

NTCP effect (NTCP): potent/efficacious NTCP inhibitor
Compound: Cc1cc2c(cc1CC(=O)c1sccc1S(=O)(=O)Nc1onc(C)c1Cl)OCO2 [Sitaxsentan]
effect on hepatotoxicity of the bile acid pool [6]: did not alter the hepatotoxicity of the bile acid pool
Cmax ([3]; in vivo): 23500 nM
clinical toxicity [4]: Toxicity in clinic after 5 months; liver likely not primary site of toxicity; also recorded: No toxicity @ 3 months
BSEP effect (BSEP): no BSEP effect
BA toxicity potency (SCHH [5]): Decreased BA toxicity potency
